Values belong to the molecule of their own block, whether it stands above or below them.
Columns and labels:
[1] = molecular target: T1, elastase (Porcine pancreatic elastase) (Sus scrofa, UniProt P00772); test: absorbance […] nm, p-nitroanilide release; format: biochemical
T1 construct: gene CELA1; native pancreatic enzyme, commercial preparation; mature active enzyme

[2] = molecular target: T2, hyaluronidase from bovine testes type I-S (Bos taurus, UniProt Q2YDK3); test: turbidity with acidic albumin, absorbance […] nm; format: biochemical; conditions: hyaluronic acid substrate (0.03% stock); phosphate pH 5.35; 37 °C; 45 min; preincubation at pH 7
T2 construct: gene SPAM1; native bovine testes enzyme, commercial type I-S preparation
T2 sequence (Q2YDK3 36-553): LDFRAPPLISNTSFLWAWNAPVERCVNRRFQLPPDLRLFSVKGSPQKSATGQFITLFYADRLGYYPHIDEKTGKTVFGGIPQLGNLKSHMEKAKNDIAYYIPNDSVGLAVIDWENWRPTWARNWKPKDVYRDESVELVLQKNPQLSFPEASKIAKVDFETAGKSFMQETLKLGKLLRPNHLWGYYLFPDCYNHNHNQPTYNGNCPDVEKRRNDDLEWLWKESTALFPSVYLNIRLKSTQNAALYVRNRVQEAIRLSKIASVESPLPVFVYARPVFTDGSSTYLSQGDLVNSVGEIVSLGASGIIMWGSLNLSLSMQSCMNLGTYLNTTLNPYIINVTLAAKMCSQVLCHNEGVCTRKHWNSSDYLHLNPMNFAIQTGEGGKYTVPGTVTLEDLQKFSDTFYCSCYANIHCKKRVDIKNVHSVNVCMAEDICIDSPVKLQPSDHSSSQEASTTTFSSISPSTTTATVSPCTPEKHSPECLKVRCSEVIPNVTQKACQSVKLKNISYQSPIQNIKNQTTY

huRPA32 = huRPA32 (human, UniProt P15927 1-270); test: EMSA; no extract; [Protein]50; 40 mM Tris-HCl pH 7.5, 50 mM NaCl, 37 °C 60 min, DNA 30 fmol/uL; 8% native PAGE in TBE; conditions: protein: recombinant; tags: N-terminal EF (EcoRI site); label: 5' biotin; single-stranded
Sequence of huRPA32 (P15927 whole entry): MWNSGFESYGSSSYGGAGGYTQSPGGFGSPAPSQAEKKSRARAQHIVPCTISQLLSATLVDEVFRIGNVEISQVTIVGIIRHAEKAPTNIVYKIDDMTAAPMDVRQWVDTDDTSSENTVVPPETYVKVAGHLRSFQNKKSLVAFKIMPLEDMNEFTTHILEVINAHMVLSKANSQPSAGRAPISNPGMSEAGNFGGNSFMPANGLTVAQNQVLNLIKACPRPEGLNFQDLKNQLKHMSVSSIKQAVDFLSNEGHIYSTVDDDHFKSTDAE

T1 sequence (P00772 27-266): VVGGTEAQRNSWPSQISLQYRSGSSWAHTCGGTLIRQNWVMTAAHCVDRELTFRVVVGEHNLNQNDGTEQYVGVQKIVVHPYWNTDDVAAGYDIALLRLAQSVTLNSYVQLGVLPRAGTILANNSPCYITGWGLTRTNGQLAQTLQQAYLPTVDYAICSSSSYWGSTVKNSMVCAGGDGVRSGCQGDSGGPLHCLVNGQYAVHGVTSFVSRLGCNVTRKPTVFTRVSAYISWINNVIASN

IC50 [1]: 9.62 µM
Molecule: O=C(O[C@@H]1Cc2c(O)cc(O)cc2O[C@@H]1c1cc(O)c(O)c(O)c1)c1cc(O)c(O)c(O)c1 [EGCG]

IC50 [2]: 29.9 µM
Molecule: O=c1c(O)c(-c2cc(O)c(O)c(O)c2)oc2cc(O)cc(O)c12 [Myr]

Molecule: TTTTTTTTTTTTTTTTTTTTTTTTT (ssDNA) [dT25]
apparent K (half saturation) (huRPA32): 6.3 ± 0.5 µM
